The target of one experiment is hNaV1.1 (SCN1A) (Homo sapiens, UniProt P35498). Nature of the experiment: Use-dependent inhibition of the CNS NaV1.1 sodium channel. In kind it is cell-based. Particulars: % inhibition, 25 Hz; for inhibition at 1 µM: use-dependent block at 1 uM, read-out: Nav1.1 UDB 25 Hz 1 uM; for inhibition at 10 µM: use-dependent block at 10 uM, read-out: Nav1.1 UDB 25 Hz 10 uM. The essentials: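 Whole-cell automated patch clamp on HEK-293 cells stably expressing hNaV1.1, 23-25° C., CsF internal solution. Peak current at pulse 20 of a 25 Hz train (0 mV, 20 ms) from −120 mV, normalized to pulse 1; percentage inhibition versus compound-free condition.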

The next experiment addresses T1, hNaV1.2 (SCN2A) (Homo sapiens, UniProt Q99250).
T1 construct: expressed in transfected cells
As to the kind of experiment: Use-dependent inhibition of the CNS NaV1.2 sodium channel. Particulars: HEK-293, % inhibition, 25 Hz; for inhibition at 1 µM: use-dependent block at 1 uM, read-out: Nav1.2 UDB 25 Hz 1 uM; for inhibition at 10 µM: use-dependent block at 10 uM, read-out: Nav1.2 UDB 25 Hz 10 uM. Type of experiment: cell-based. As for the experimental part:
HEK-293 cells stably expressing wild-type (WT) hNaV1.2 (SCN2A NCBI # NM_021007.2, SCN1B NCBI # NM_001037.4, SCN2B NCBI # NM_004588.2) were used to record INa. Cells are maintained with standard tissue culture procedures and stable channel expression is maintained with 800 ug/mL G418 and 3 ug/mL Puromycin in the culture medium. Unless otherwise noted, all reagents are purchased from Sigma-Aldrich (St Louis, Mo., U.S.A.).
Assays measuring Use-Dependent Block (UDB) of NaV1.2 are performed on an automated electrophysiology platform, QPatch 16X or QPatch HT (Sophion Bioscience, Copenhagen, Denmark), using the whole cell patch clamp technique to measure currents through the cell membrane. Series resistance compensation is set to 100% and series resistance and whole-cell compensation are performed automatically. Currents stored in the Sophion Bioscience Oracle database (Sophion Bioscience, Copenhagen, Denmark). Analysis is performed using QPatch Assay software and data are compiled in Excel 2010 (Microsoft, Seattle, Wash., U.S.A.). The internal (pipette) solution consists of (in mM) 105 CsF, 10 NaF, 20 CsCl, 2 EGTA, 10 HEPES, 10 Dextrose with a pH of 7.35 and osmolarity of 300 mOsmol/kg. The external (bath) solution contains in (mM): 145 NaCl, 4 KCl, 1.8 CaCl2, 1 MgCl2, 10 dextrose, 10 HEPES, with a pH of 7.35 and osmolarity of 310 mOsmol/kg. Experiments are carried out at 23-25° C.
Compound stocks are routinely made by the Gilead Sample Bank in vials to 10 mM in dimethyl sulfoxide (DMSO). In some cases, when compounds are not soluble in DMSO, they are made in 100% ethanol. Stocks are sonicated as necessary. […]
Cells are allowed to stabilize for 10 min after establishment of the whole-cell configuration before current is measured. The test compound is applied 2 times at 60 second intervals. After the second compound addition, a 200 second wait period was imposed to allow for equilibration. Leak currents are subtracted by using an online P/4 procedure and all currents are low-pass Bessel filtered at 5 kHz and digitized at […].
Results are presented as mean percentage inhibition.
Use-dependent block of NaV1.2 peak current is measured during pulse number 20 of a voltage pulse train (0 mV, 20 ms, 20 pulses, 25 Hz) from a holding potential of −120 mV.
Currents are normalized to the peak current recorded in response to the first pulse in each frequency train. The voltage protocol for UDB was performed in the absence and presence of compound and percentage inhibition was calculated with respect to the compound free condition.
Data analysis is performed using QPatch Assay Software 4.0, and Excel 2002 (Microsoft, Seattle, Wash., U.S.A.).

Each structure is given as a SMILES string. A value given as a limit tells only on which side of the number the result lay.

T1 sequence (Q99250 whole entry): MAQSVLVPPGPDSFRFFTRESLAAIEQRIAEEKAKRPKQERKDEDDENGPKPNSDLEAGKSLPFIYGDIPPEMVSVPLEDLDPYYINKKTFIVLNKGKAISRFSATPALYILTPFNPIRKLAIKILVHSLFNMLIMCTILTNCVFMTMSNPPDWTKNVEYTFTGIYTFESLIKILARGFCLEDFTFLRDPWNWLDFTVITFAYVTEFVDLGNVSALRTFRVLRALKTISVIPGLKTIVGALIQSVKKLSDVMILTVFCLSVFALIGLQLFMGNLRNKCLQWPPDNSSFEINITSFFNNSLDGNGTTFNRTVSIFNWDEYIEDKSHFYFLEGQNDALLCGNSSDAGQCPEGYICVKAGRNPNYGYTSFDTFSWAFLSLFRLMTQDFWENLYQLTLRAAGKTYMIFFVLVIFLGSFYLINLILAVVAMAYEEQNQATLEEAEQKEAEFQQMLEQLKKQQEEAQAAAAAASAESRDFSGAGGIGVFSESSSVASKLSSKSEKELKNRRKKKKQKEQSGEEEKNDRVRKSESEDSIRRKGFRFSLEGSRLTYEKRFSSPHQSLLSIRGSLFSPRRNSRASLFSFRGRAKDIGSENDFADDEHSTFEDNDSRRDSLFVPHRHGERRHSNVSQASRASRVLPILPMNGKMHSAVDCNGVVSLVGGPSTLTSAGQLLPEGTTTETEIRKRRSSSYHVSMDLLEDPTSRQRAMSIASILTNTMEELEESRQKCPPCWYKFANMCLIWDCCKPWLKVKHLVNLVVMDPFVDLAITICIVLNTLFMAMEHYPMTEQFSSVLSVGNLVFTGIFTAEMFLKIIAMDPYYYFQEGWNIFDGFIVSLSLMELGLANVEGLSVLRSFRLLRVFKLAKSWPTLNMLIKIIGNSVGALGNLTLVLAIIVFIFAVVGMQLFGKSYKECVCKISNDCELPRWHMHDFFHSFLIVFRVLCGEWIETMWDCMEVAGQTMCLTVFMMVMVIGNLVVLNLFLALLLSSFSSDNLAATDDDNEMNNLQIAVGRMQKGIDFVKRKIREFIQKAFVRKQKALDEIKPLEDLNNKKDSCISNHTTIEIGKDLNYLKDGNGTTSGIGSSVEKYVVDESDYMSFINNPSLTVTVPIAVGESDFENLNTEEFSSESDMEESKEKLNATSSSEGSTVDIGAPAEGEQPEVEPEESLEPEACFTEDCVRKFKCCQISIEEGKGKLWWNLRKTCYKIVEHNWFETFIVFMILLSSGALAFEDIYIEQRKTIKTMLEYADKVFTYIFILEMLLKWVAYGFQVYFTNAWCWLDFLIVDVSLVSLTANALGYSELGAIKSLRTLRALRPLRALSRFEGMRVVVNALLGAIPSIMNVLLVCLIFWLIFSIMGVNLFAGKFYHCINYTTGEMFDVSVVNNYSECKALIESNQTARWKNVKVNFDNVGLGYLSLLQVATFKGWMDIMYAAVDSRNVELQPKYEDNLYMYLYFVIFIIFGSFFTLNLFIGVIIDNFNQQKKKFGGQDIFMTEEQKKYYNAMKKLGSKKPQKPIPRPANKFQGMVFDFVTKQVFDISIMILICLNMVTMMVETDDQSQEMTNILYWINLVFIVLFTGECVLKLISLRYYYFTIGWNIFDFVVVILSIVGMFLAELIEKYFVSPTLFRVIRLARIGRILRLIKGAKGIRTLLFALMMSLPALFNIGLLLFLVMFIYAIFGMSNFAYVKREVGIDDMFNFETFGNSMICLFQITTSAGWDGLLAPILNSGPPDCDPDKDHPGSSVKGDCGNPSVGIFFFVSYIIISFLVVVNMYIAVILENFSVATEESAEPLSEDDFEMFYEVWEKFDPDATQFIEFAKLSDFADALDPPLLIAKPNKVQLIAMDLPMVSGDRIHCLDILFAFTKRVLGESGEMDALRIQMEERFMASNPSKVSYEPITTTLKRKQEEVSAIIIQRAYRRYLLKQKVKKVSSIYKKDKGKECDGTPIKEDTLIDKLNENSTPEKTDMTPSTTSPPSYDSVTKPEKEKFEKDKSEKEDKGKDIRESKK
T1 sequence (Q07699 19-218 partner): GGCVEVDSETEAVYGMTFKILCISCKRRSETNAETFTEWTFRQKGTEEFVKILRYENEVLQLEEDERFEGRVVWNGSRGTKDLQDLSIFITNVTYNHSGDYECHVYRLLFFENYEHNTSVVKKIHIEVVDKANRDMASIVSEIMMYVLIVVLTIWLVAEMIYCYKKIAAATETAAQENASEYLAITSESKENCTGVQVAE
T1 sequence (O60939 30-215 partner): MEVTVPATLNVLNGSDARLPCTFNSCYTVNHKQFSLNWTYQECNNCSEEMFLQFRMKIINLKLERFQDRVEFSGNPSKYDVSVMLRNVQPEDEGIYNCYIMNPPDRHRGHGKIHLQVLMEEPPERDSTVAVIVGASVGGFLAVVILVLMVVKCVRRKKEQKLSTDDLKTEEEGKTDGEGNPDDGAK

Consider `COc1cc(OC(F)(F)F)ccc1-c1ccc2c(c1)CN(Cc1nccc(C)n1)C(=O)O2` [Example 31, 6-(2-methoxy-4-(trifluoromethoxy)phenyl)-3-((4-methylpyrimidin-2-yl)methyl)-3,4-dihydro-2H-benzo[e][1,3]oxazin-2-one], for which the inhibition at 1 µM was determined as 6% at hNaV1.1 (SCN1A) and 13.2% on hNaV1.2 (SCN2A). Moreover, the inhibition at 10 µM at hNaV1.1 (SCN1A) was 53.3%; at hNaV1.2 (SCN2A), 45.7%.
For `Cc1ccnc(CN2Cc3cc(-c4ccc(OC(F)(F)F)cc4F)ccc3OC2=O)n1` [Example 32, 6-(2-fluoro-4-(trifluoromethoxy)phenyl)-3-((4-methylpyrimidin-2-yl)methyl)-3,4-dihydro-2H-benzo[e][1,3]oxazin-2-one], on hNaV1.1 (SCN1A), the inhibition at 1 µM was 10.8% and the inhibition at 10 µM was 61.8%. At hNaV1.2 (SCN2A), the inhibition at 1 µM is 8.1% and the inhibition at 10 µM is 41%.
For `Cc1ccnc(CN2Cc3cc(-c4ccc(OC(F)(F)F)cc4C)ccc3OC2=O)n1` [Example 33, 6-(2-methyl-4-(trifluoromethoxy)phenyl)-3-((4-methylpyrimidin-2-yl)methyl)-3,4-dihydro-2H-benzo[e][1,3]oxazin-2-one], in that order: 5.5%, 61.4%, 17.2% and 55.2%.
As to `COc1cc(C(F)(F)F)ccc1-c1ccc2c(c1)CN(Cc1ncccn1)C(=O)O2` [Example 34, 6-(2-methoxy-4-(trifluoromethyl)phenyl)-3-(pyrimidin-2-ylmethyl)-3,4-dihydro-2H-benzo[e][1,3]oxazin-2-one], on hNaV1.1 (SCN1A), the inhibition at 1 µM stood at 26.9% and the inhibition at 10 µM was 76.1%. For the same compound, at hNaV1.2 (SCN2A), the inhibition at 1 µM stood at 38.8% and the inhibition at 10 µM was 78.5%.
For `CCOc1cc(C(F)(F)F)ccc1-c1ccc2c(c1)CN(Cc1ncccn1)C(=O)O2` [Example 35, 6-(2-ethoxy-4-(trifluoromethyl)phenyl)-3-(pyrimidin-2-ylmethyl)-3,4-dihydro-2H-benzo[e][1,3]oxazin-2-one], in that order: 37.6%, 80.4%, 39.3% and 75.1%.
For the compound `O=C1Oc2ccc(-c3ccc(C(F)(F)F)cc3F)cc2CN1Cc1ncccn1` [Example 36, 6-(2-fluoro-4-(trifluoromethyl)phenyl)-3-(pyrimidin-2-ylmethyl)-3,4-dihydro-2H-benzo[e][1,3]oxazin-2-one], at hNaV1.1 (SCN1A), the inhibition at 1 µM stood at 22.8% and the inhibition at 10 µM came to 68.7%. Further, on hNaV1.2 (SCN2A), the inhibition at 1 µM was 19.1% and the inhibition at 10 µM was determined as 55.9%.
Consider `Cc1cc(C(F)(F)F)ccc1-c1ccc2c(c1)CN(Cc1ncccn1)C(=O)O2` [Example 37, 6-(2-methyl-4-(trifluoromethyl)phenyl)-3-(pyrimidin-2-ylmethyl)-3,4-dihydro-2H-benzo[e][1,3]oxazin-2-one], for which, on hNaV1.1 (SCN1A), the inhibition at 1 µM came to 7.3% and the inhibition at 10 µM amounted to 67.7%. Also, on hNaV1.2 (SCN2A), the inhibition at 1 µM worked out at 7.8% and the inhibition at 10 µM was 27.1%.
Take `O=C1Oc2ccc(-c3ccc(C4(C(F)(F)F)CC4)cc3)cc2CN1Cc1ncccn1` [Example 38, 3-(pyrimidin-2-ylmethyl)-6-(4-(1-(trifluoromethyl)cyclopropyl)phenyl)-3,4-dihydro-2H-benzo[e][1,3]oxazin-2-one]: the inhibition at 1 µM was found to be 49% at hNaV1.1 (SCN1A) and 34.1% on hNaV1.2 (SCN2A). Also, the inhibition at 10 µM on hNaV1.1 (SCN1A) was 78.1%; on hNaV1.2 (SCN2A) it was 71.8%.
As to `CC(C)Oc1cc(OC(F)(F)F)ccc1-c1ccc2c(c1)CN(Cc1ncccn1)C(=O)O2` [Example 39, 6-(2-isopropoxy-4-(trifluoromethoxy)phenyl)-3-(pyrimidin-2-ylmethyl)-3,4-dihydro-2H-benzo[e][1,3]oxazin-2-one], at hNaV1.1 (SCN1A), the inhibition at 1 µM was found to be 39.1% and the inhibition at 10 µM worked out at 73.4%. For the same compound, at hNaV1.2 (SCN2A), the inhibition at 1 µM is 16% and the inhibition at 10 µM is 59.3%.
In the case of `CCOc1cc(OC(F)(F)F)ccc1-c1ccc2c(c1)CN(Cc1ncccn1)C(=O)O2` [Example 40, 6-(2-ethoxy-4-(trifluoromethoxy)phenyl)-3-(pyrimidin-2-ylmethyl)-3,4-dihydro-2H-benzo[e][1,3]oxazin-2-one], at hNaV1.1 (SCN1A), the inhibition at 1 µM stood at 22.6% and the inhibition at 10 µM stood at 71.3%. For the same compound, at hNaV1.2 (SCN2A), the inhibition at 1 µM was 16.7% and the inhibition at 10 µM worked out at 62.5%.
`Cc1cnc(CN2Cc3cc(-c4ccc(C(F)(F)F)cc4F)ccc3OC2=O)nc1` [Example 41, 6-(2-fluoro-4-(trifluoromethyl)phenyl)-3-((5-methylpyrimidin-2-yl)methyl)-3,4-dihydro-2H-benzo[e][1,3]oxazin-2-one]: the inhibition at 1 µM was less than 5% at hNaV1.1 (SCN1A) and 7.1% at hNaV1.2 (SCN2A). Further, the inhibition at 10 µM on hNaV1.1 (SCN1A) is 29%; on hNaV1.2 (SCN2A), 36.2%.
Consider `COc1cc(C(F)(F)F)ccc1-c1ccc2c(c1)CN(Cc1ncc(C)cn1)C(=O)O2` [Example 42, 6-(2-methoxy-4-(trifluoromethyl)phenyl)-3-((5-methylpyrimidin-2-yl)methyl)-3,4-dihydro-2H-benzo[e][1,3]oxazin-2-one], for which, at hNaV1.1 (SCN1A), the inhibition at 1 µM was 11.5% and the inhibition at 10 µM turned out to be 47.9%. At hNaV1.2 (SCN2A), the inhibition at 1 µM stood at 13.3% and the inhibition at 10 µM was 47.4%.
`Cc1cnc(CN2Cc3cc(-c4ccc(C(F)(F)F)cc4C)ccc3OC2=O)nc1` [Example 43, 6-(2-methyl-4-(trifluoromethyl)phenyl)-3-((5-methylpyrimidin-2-yl)methyl)-3,4-dihydro-2H-benzo[e][1,3]oxazin-2-one]: at hNaV1.1 (SCN1A), the inhibition at 1 µM is less than 5% and the inhibition at 10 µM came out at 51.4%. Moreover, on hNaV1.2 (SCN2A), the inhibition at 1 µM is less than 5% and the inhibition at 10 µM worked out at 48.9%.
As to `COc1cc(C(F)(F)F)ccc1-c1ccc2c(c1)CN(Cc1cccc(C)n1)C(=O)O2` [Example 44, 6-(2-methoxy-4-(trifluoromethyl)phenyl)-3-((6-methylpyridin-2-yl)methyl)-3,4-dihydro-2H-benzo[e][1,3]oxazin-2-one], on hNaV1.1 (SCN1A), the inhibition at 1 µM is 25% and the inhibition at 10 µM turned out to be 84.5%. Further, on hNaV1.2 (SCN2A), the inhibition at 1 µM stood at 20.9% and the inhibition at 10 µM came to 68.4%.
The corresponding values for `Cc1cccc(CN2Cc3cc(-c4ccc(C(F)(F)F)cc4F)ccc3OC2=O)n1` [Example 45, 6-(2-fluoro-4-(trifluoromethyl)phenyl)-3-((6-methylpyridin-2-yl)methyl)-3,4-dihydro-2H-benzo[e][1,3]oxazin-2-one] are 19.9%, 72.8%, 10.4% and 62.3%.
Consider `COc1cc(OC(F)(F)F)ccc1-c1ccc2c(c1)CN(Cc1cccc(C)n1)C(=O)O2` [Example 46, 6-(2-methoxy-4-(trifluoromethoxy)phenyl)-3-((6-methylpyridin-2-yl)methyl)-3,4-dihydro-2H-benzo[e][1,3]oxazin-2-one], for which, on hNaV1.1 (SCN1A), the inhibition at 1 µM amounted to 19% and the inhibition at 10 µM was 78.6%. Further, at hNaV1.2 (SCN2A), the inhibition at 1 µM was found to be 22.4% and the inhibition at 10 µM came out at 77.2%.

Values taken from patent US9416128B2, “Fused heterocyclic compounds as ion channel modulators” (Gilead Sciences, Inc., priority 2013, dated 2016).
